# Target: T1, human orexin type 2 receptor (Homo sapiens, UniProt O43614)
# T1 construct: expressed in transfected cells
# T1 sequence (O43614 1-444): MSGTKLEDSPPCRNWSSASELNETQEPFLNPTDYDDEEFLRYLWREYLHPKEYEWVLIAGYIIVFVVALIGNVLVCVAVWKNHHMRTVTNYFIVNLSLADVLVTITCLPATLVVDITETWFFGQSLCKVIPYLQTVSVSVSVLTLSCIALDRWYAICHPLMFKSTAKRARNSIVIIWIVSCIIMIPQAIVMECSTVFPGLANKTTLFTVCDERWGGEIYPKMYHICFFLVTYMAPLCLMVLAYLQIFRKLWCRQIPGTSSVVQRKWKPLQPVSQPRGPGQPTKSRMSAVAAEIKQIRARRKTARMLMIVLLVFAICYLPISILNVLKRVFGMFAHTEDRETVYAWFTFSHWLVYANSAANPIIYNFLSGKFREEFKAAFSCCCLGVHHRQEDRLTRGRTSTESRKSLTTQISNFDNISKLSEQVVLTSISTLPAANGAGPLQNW
# Assay: Measurement of orexin type 2 receptor agonist activity (calcium fluorescence, Fluo-4 AM, FDSS)
# Assay type: cell-based
# Conditions: test compound 3 μM; CHO cells expressing human OX2 receptor; DMSO = 0%, orexin A (human) = 100%
# Method in brief: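 CHO-K1 cells stably expressing human OX2R were loaded with Fluo-4 AM (30 min 37 °C, 30 min RT) in HEPES-buffered HBSS with 0.1% BSA and probenecid. Calcium fluorescence was followed on FDSS for 2 min after compound addition; activity normalised to DMSO (0%) and 10 nM orexin A (100%).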
row,SMILES,"OX2R agonist activity (3 μM, %) [%]"
1,"O=C(C1CC1c1ccccc1-c1c(F)cccc1F)N1CC[C@H](NS(=O)(=O)CF)C1 (mixture of isomers) [Example 202, a mixture of rac-N-{(3S)-1-[(1R,2R)-2-(2′,6′-difluoro[1,1′-biphenyl]-2-yl)cyclopropane-1-carbonyl]pyrrolidin-3-yl}-1-fluoromethanesulfonamide and N-{(3S)-1-[(1S,2S)-2-(2′,6′-difluoro[1,1′-biphenyl]-2-yl)cyclopropane-1-carbonyl]pyrrolidin-3-yl}-1-fluoromethanesulfonamide]",106
2,"CCS(=O)(=O)NCC1CCN1C(=O)C1CC1c1ccccc1-c1c(F)cccc1F (racemic) [Example 203, a mixture of rac-N-({(2R)-1-[(1R,2R)-2-(2′,6′-difluoro[1,1′-biphenyl]-2-yl)cyclopropane-1-carbonyl]azetidin-2-yl}methyl)ethanesulfonamide and rac-N-({(2S)-1-[(1R,2R)-2-(2′,6′-difluoro[1,1′-biphenyl]-2-yl)cyclopropane-1-carbonyl]azetidin-2-yl}methyl)ethanesulfonamide]",94
3,"CN(C)S(=O)(=O)NCC1CCN1C(=O)C1CC1c1ccccc1-c1c(F)cccc1F (racemic) [Example 204, a mixture of rac-N′-({(2R)-1-[(1R,2R)-2-(2′,6′-difluoro[1,1′-biphenyl]-2-yl)cyclopropane-1-carbonyl]azetidin-2-yl}methyl)-N,N-dimethylsulfuric diamide and rac-N′-({(2S)-1-[(1R,2R)-2-(2′,6′-difluoro[1,1′-biphenyl]-2-yl)cyclopropane-1-carbonyl]azetidin-2-yl}methyl)-N,N-dimethysulfuric diamide]",96
4,"O=C(C1CC1c1ccccc1-c1c(F)cccc1F)N1CCC1CNS(=O)(=O)C1CC1 (racemic) [Example 205, a mixture of rac-N-({(2R)-1-[(1R,2R)-2-(2′,6′-difluoro[1,1′-biphenyl]-2-yl)cyclopropane-1-carbonyl]azetidin-2-yl}methyl)cyclopropanesulfonamide and rac-N-({(2S)-1-[(1R,2R)-2-(2′,6′-difluoro[1,1′-biphenyl]-2-yl)cyclopropane-1-carbonyl]azetidin-2-yl}methyl)cyclopropanesulfonamide]",78
5,"CS(=O)(=O)NC1CCCN(C(=O)C2CC2c2cnccc2-c2c(F)cccc2F)CC1 (racemic) [Example 206, a mixture of rac-N-[(4R)-1-{(1R,2R)-2-[4-(2,6-difluorophenyl)pyridin-3-yl]cyclopropane-1-carbonyl}azepan-4-yl]methanesulfonamide and rac-N-[(4S)-1-{(1R,2R)-2-[4-(2,6-difluorophenyl)pyridin-3-yl]cyclopropane-1-carbonyl}azepan-4-yl]methanesulfonamide]",87
6,"CS(=O)(=O)NC1CCN(C(=O)C2CC2c2ccc(F)cc2-c2ccccc2F)C1 (racemic) [Example 208, a mixture of rac-N-{(3R)-1-[(1R,2R)-2-(2′,5-difluoro[1,1′-biphenyl]-2-yl)cyclopropane-1-carbonyl]pyrrolidin-3-yl}methanesulfonamide and rac-N-{(3S)-1-[(1R,2R)-2-(2′,5-difluoro[1,1′-biphenyl]-2-yl)cyclopropane-1-carbonyl]pyrrolidin-3-yl}methanesulfonamide]",78
7,"Cc1ccc(C2CC2C(=O)N2CCC(NS(C)(=O)=O)C2)c(-c2ccccc2F)c1 (racemic) [Example 209, a mixture of rac-N-{(3R)-1-[(1R,2R)-2-(2′-fluoro-5-methyl[1,1′-biphenyl]-2-yl)cyclopropane-1-carbonyl]pyrrolidin-3-yl}methanesulfonamide and rac-N-{(3S)-1-[(1R,2R)-2-(2′-fluoro-5-methyl[1,1′-biphenyl]-2-yl)cyclopropane-1-carbonyl]pyrrolidin-3-yl}methanesulfonamide]",95
8,"CS(=O)(=O)NC1CCN(C(=O)C2CC2c2ccccc2-c2c(F)cccc2F)CCC1(F)F (racemic) [Example 212, a mixture of rac-N-{(4R)-1-[(1R,2R)-2-(2′,6′-difluoro[1,1′-biphenyl]-2-yl)cyclopropane-1-carbonyl]-5,5-difluoroazepan-4-yl}methanesulfonamide and rac-N-{(4S)-1-[(1R,2R)-2-(2′,6′-difluoro[1,1′-biphenyl]-2-yl)cyclopropane-1-carbonyl]-5,5-difluoroazepan-4-yl}methanesulfonamide]",91
9,CC1CN(C(=O)C2CC2c2ccccc2-c2c(F)cccc2F)CCCC1NS(C)(=O)=O (racemic) [Example 217],83
10,"CS(=O)(=O)NC1COCCN(C(=O)C2CC2c2ccccc2-c2c(F)cccc2F)C1 (racemic) [Example 219, a mixture of rac-N-{(6R)-1-[(1R,2R)-2-(2′,6′-difluoro[1,1′-biphenyl]-2-yl)cyclopropane-1-carbonyl]-1,4-oxazepan-6-yl}methanesulfonamide and rac-N-{(6S)-4-[(1R,2R)-2-(2′,6′-difluoro[1,1′-biphenyl]-2-yl)cyclopropane-1-carbonyl]-1,4-oxazepan-6-yl}methanesulfonamide]",96
11,"CS(=O)(=O)NC1CCCN(C(=O)C2CC2c2sccc2-c2ccccc2F)CC1 (racemic) [Example 220, a mixture of rac-N-[(4R)-1-{(1R,2R)-2-[3-(2-fluorophenyl)thiophen-2-yl]cyclopropane-1-carbonyl}azepan-4-yl]methanesulfonamide and rac-N-[(4S)-1-{(1R,2R)-2-[3-(2-fluorophenyl)thiophen-2-yl]cyclopropane-1-carbonyl}azepan-4-yl]methanesulfonamide]",79
12,"CS(=O)(=O)NC1CCCN(C(=O)C2CC2c2sccc2-c2c(F)cccc2F)CC1 (racemic) [Example 221, a mixture of rac-N-[(4R)-1-{(1R,2R)-2-[3-(2,6-difluorophenyl)thiophen-2-yl]cyclopropane-1-carbonyl}azepan-4-yl]methanesulfonamide and rac-N-[(4S)-1-{(1R,2R)-2-[3-(2,6-difluorophenyl)thiophen-2-yl]cyclopropane-1-carbonyl}azepan-4-yl]methanesulfonamide]",107
13,"CS(=O)(=O)NC1CCCN(C(=O)C2CC2c2sccc2-c2c(F)cccc2F)C1 (racemic) [Example 223, a mixture of rac-N-[(3R)-1-{(1R,2R)-2-[3-(2,6-difluorophenyl)thiophen-2-yl]cyclopropane-1-carbonyl}piperidin-3-yl]methanesulfonamide and rac-N-[(3S)-1-{(1R,2R)-2-[3-(2,6-difluorophenyl)thiophen-2-yl]cyclopropane-1-carbonyl}piperidin-3-yl]methanesulfonamide]",81
14,"CS(=O)(=O)NC1CCN(C(=O)C2CC2c2ccc(C(F)F)cc2-c2c(F)cccc2F)C1 (racemic) [Example 228, a mixture of rac-N-[(3R)-1-{(1R,2R)-2-[5-(difluoromethyl)-2′,6′-difluoro[1,1′-biphenyl]-2-yl]cyclopropane-1-carbonyl}pyrrolidin-3-yl]methanesulfonamide and rac-N-[(3S)-1-{(1R,2R)-2-[5-(difluoromethyl)-2′,6′-difluoro[1,1′-biphenyl]-2-yl]cyclopropane-1-carbony}pyrrolidin-3-yl]methanesulfonamide]",90

# Reference: patent US20250250230A1, “HETEROCYCLIC COMPOUND” (TAKEDA PHARMACEUTICAL COMPANY LIMITED, priority 2022, published 2025)
